From ChEMBL document CHEMBL3870328, “Synthesis of novel Ral inhibitors: An in vitro and in vivo study” (Bioorg Med Chem Lett, 2016)

Tests used:
[1] = Drug metabolism in mouse xenografted with human NCI-H2122 cells assessed as M4 metabolite formation in liver at 50 mg/kg, ip after 3 hrs by LC-MS/MS analysis; type: ADME, organism-based; details: in vivo
[2] = Drug metabolism in mouse xenografted with human NCI-H2122 cells assessed as M4 metabolite formation in plasma at 50 mg/kg, ip after 3 hrs by LC-MS/MS analysis; type: ADME, organism-based; details: in vivo
[3] = Drug metabolism in mouse xenografted with human NCI-H2122 cells assessed as M1 metabolite formation in lungs at 50 mg/kg, ip after 3 hrs by LC-MS/MS analysis; type: ADME, organism-based, Lung; details: in vivo
[4] = Drug metabolism in CD1 mouse liver microsomes assessed as CYP450-mediated mono-oxidation by measuring M3 metabolite formation at 16.7 uM after 10 mins in presence of NADPH by LC-MS/MS analysis; type: ADME
[5] = Drug metabolism in mouse xenografted with human NCI-H2122 cells assessed as M3 metabolite formation in lungs at 50 mg/kg, ip after 3 hrs by LC-MS/MS analysis; type: ADME, organism-based, Lung; details: in vivo
[6] = Drug metabolism in mouse xenografted with human NCI-H2122 cells assessed as M5 metabolite formation in lungs at 50 mg/kg, ip after 3 hrs by LC-MS/MS analysis; type: ADME, organism-based, Lung; details: in vivo
[7] = Drug metabolism in mouse xenografted with human NCI-H2122 cells assessed as M5 metabolite formation in heart at 50 mg/kg, ip after 3 hrs by LC-MS/MS analysis; type: ADME, organism-based; details: in vivo
[8] = Drug metabolism in mouse xenografted with human NCI-H2122 cells assessed as M3 metabolite formation in plasma at 50 mg/kg, ip after 3 hrs by LC-MS/MS analysis; type: ADME, organism-based; details: in vivo
[9] = Drug metabolism in mouse xenografted with human NCI-H2122 cells assessed as M1 metabolite formation in liver at 50 mg/kg, ip after 3 hrs by LC-MS/MS analysis; type: ADME, organism-based; details: in vivo
[10] = Drug metabolism in mouse xenografted with human NCI-H2122 cells assessed as M4 metabolite formation in kidney at 50 mg/kg, ip after 3 hrs by LC-MS/MS analysis; type: ADME, organism-based; details: in vivo
[11] = Drug uptake in tumor of mouse xenografted with human NCI-H2122 cells at 50 mg/kg, ip after 3 hrs by LC-MS/MS analysis; type: ADME, organism-based, Neoplasm; details: read-out: Drug uptake

Drug metabolism [1]: 1391.3 ng/g
Drug metabolism [2]: 37.8 ng/mL
Drug metabolism [3]: 18.2 ng/g
Drug metabolism [4]: Metabolite_Detected
Drug metabolism [5]: 2 ng/g
Drug metabolism [6]: 11.5 ng/g
Drug metabolism [7]: 5.5 ng/g
Drug metabolism [8]: 14.2 ng/mL
Drug metabolism [9]: 557.4 ng/g
Drug metabolism [10]: 260 ng/g
concentration at 3 h [11]: 5830 ng/g
SMILES: COc1ccc(OC)c(C2C(C#N)=C(N)Oc3[nH]nc(-c4ccc5ccccc5c4)c32)c1 (stereo unspecified)
